We go through eight molecules from patent US6383479B1, “Neutrophil-activating factor” (Novartis AG, priority 1987, dated 2002).

Starred links: 1 amine or outer side, 2 acyl side, 3 side chain; linkers in the order of their positions; H or OH if unused. Positions of bridges follow the written chain, without caps; N, C: chain ends. Non-standard residues stand in square brackets, D forms with d. Residues, ends and D or L forms follow the SMILES beside them. Chains are numbered I, II in the order given. Actinocin(9to1) = Cc1c2oc3c(C)ccc(C(=O)[*:1])c3nc-2c(C(=O)[*:2])c(N)c1=O; NMeV = CN[C@H](C(=O)O)C(C)C; Sar = CNCC(=O)O

Data set [1] relates to human neutrophils. As to conditions: Wymann et al., J. Biol. Chem. 262 [1987] 12048; cited from earlier work.
In data set [2] the test system is human neutrophils. Put plainly: superoxide formation (SOD-sensitive cytochrome c reduction) by human neutrophils. It is filed as cell-based. Conditions: 1 μm PAF for 2 minutes. As for the experimental part: a) Superoxide production: neutrophils (3×10^6 /ml) are preincubated at 37° with or without 1 μm PAF for 2 minutes and then stimulated with increasing amounts of NAF. Recordings of cytochrome c reduction following NAF addition are shown.
Superoxide formation is measured at 37° as the SOD sensitive reduction of ferricytochrome c (M. Markert et al., Methods Enzymol. 132 [1984] 267). The assay mixture (800 μl) consists of 0.75×10^6 cells/ml PBS-BSA containing 85 μM cytochrome c. Absorbance changes are recorded in a Hewlett-Packard 8451A diode array spectrophotometer equipped with a thermostated seven-place cuvette exchanger. Table 4 documents the capacity of NAF to elicit the respiratory burst in human neutrophils: […]

Data set [3] concerns New Zealand albino rabbits. The experiment in a line: neutrophil accumulation and plasma leakage in rabbit skin after intradermal injection. The data set is classed as in vivo. As to conditions: 2 h; for effect on neutrophil accumulation induced by NAF: NAF 10^−9 moles; for effect on neutrophil accumulation induced by fMLP: fMLP 10^−9 moles. The text has this:
Inflammatory responses are examined in the skin of conscious 2.0 to 2.5 kg New Zealand albino rabbits. Erythrocytes in blood from donor rabbits are sedimented with hydroxyethyl cellulose (Polysciences, Warrington, Pa.) and neutrophils in the resultant leucocyte-rich plasma are purified (>94% neutrophils) by density gradient centrifugation on Percoll (Pharmacia, Uppsala, Sweden). Cells are resuspended in Ca^2+ and Mg^2+—free Tyrode's solution containing 10% platelet poor plasma to a concentration of 10^6 leukocytes/ml and labeled for 15 min at room temperature with 40 μCi ^111indium-oxine (Amersham) per 10^6 cells. The labeled cells are washed by centrifugation through 10% platelet-poor plasma and approximately 10^6 cells per recipient are mixed with 10 μCi ^125iodine-labeled human serum albumin (Amersham) and injected intravenously through the lateral ear vein of rabbits with inflammatory lesions under study. Intradermal injections of inflammatory agents are then made and animals are killed 2 h later in studies with actinomycin D and polymyxin B, and 4 h later in dose-response experiments. Midway through the period that radiolabeled cells are in circulation, a blood sample is collected and the specific activities of neutrophils and plasma in blood are determined. Radioactivity in inflammatory lesions at the end of each experiment are determined in a multichannel gamma counter, the activity in control skin sites is subtracted and the absolute number of neutrophils and volume of plasma accumulating in inflammatory lesions are calculated from the specific activities. Neutrophil numbers in inflammatory lesions are standardised between animals by expressing the results as cell number per 10^6 neutrophils circulating per ml peripheral blood, according to the method of Cybulsky et al., Am. J. Pathol. 124 [1986] 367.
Recombinant NAF obtained as described under Example 19 is dissolved at 400 μg/ml in minimal essential medium (50 mM) plus 0.45 M NaCl (pH 6.5). Endotoxin (E. coli serotype 055:B5, Sigma, St. Louis, Mo.) is dissolved in pyrogen-free normal saline. fMLP is dissolved in dimethyl sulphoxide at 10^−2 M and diluted to working concentrations in PFS. Polymyxin B and actinomycin D are dissolved in 1 ml ethanol and diluted 20 fold by mixing with NAF, endotoxin or fMLP in PFS. In studies on inhibition of inflammatory responses 40 μg polymyxin B and 10^−7 moles actinomycin D are injected per skin site with […] endotoxin. In all experiments 0.2 ml of inflammatory agents are injected intradermally per site through 26 gauge needles, with 5 replicates of each treatment in each animal.

In a further data set the test system is Rabbit neutrophils. Put plainly: NAF-induced exocytosis in rabbit neutrophils (N-acetyl-β-glucosaminidase release). The data set is classed as cell-based. Conditions: stimulus 100.0 nM, 15 min, cytochalasin B pretreated; purified natural NAF. The procedure:
Rabbit neutrophils are isolated from peripheral blood (obtained from the ear vein or artery) by dextran sedimentation followed by Hypaque-Ficoll density gradient centrifugation. Purified natural NAF is used.
Exocytosis conditions: 0.6×10^6 cells (in a total volume of 0.15 ml) pretreated with cytochalasin B for 5 min at 37° are stimulated with NAF (0.1-100 nM) or fMLP (100 nM) for 15 min. N-acetyl-β-glucosaminidase, an azurophil granule marker, is determined in the cell-free medium.

Data set [4] has as its system human neutrophils. Put plainly: hydrogen peroxide formation by chemiluminescence in human neutrophils. The data set is classed as cell-based. The procedure: b) H2O2-dependent chemiluminescence: the progress curves following stimulation with partially purified NAF and approximately equiactive concentrations of C5a and fMLP are shown on the left. The initial phase of the response is detailed on the right. The stimulants are added in 50 μl of PBS-BSA.
Lower graphs: respiratory burst induced by natural (left) and recombinant (right) NAF. Neutrophils (10^6 cells/ml) are stimulated with 3, 10 and 30 nM NAF at time zero and hydrogen peroxide production is measured by chemiluminescence (M. P. Wymann et al., Anal. Biochem. 165 [1987] 371-378).
The properties of NAF, fMLP and C5a as stimuli of the respiratory burst are compared by assessing the production of superoxide or hydrogen peroxide by the stimulated cells. Superoxide formation is determined as described in Example 13. Hydrogen peroxide formation is determined by chemiluminescence (M. P. Wymann et al., Anal. Biochem. 165 [1987] 371-378). The assay mixture consisting of PBS-BSA containing 0.1 M sodium azide, 0.01 mM luminol, 9 U/ml horseradish peroxidase and 10^6 neutrophils is preincubated for 10 min at 37° and the reaction is started by adding the stimulus via a microsyringe.

Data set [5] has as its system human neutrophils. Put plainly: stimulus-dependent exocytosis of granule contents by human neutrophils. The data set is classed as cell-based. Conditions: fMLP 0.1 μM. As for the experimental part:
Neutrophils (5×10^6/ml) suspended in PBS/BSA are preincubated with or without cytochalasin B (5 μg/ml) at 37° for 5 min.
Granule release is then initiated by adding the stimulus, e.g. NAF or a standard stimulus. The reaction is stopped 15 min later by rapid cooling in ice followed by centrifugation to sediment the cells. Vitamin B12-binding protein, β-glucuronidase and lactate dehydrogenase are determined in the cell-free media and cell pellets, and the release of these constituents is calculated in percent of the total cellular content (B. Dewalt and M. Baggiolini, Methods Enzymol. 132 [1986] 267).
Natural and recombinant NAF are tested in parallel on human neutrophils. They elicit virtually identical changes in cytosolic free Ca^2+, yielding a maximum rise at a concentration as low as 3 nM (FIG. 15). A nearly identical concentration-dependent respiratory burst response is obtained with both preparations in the range of 1 to 30 nM as assessed by chemiluminescence. The equivalence between natural and recombinant NAF is also reflected by chemotaxis and exocytosis measurements. Chemotactic migration is observed between 0.1 and 10 nM with a maximum effect at 1 nM. (Table 6). With either peptide a significant release of vitamin B12-binding protein from the specific granules at 0.3 nM and of beta-glucuronidase from the azurophil granules at 1 nM is observed.

The next data set deals with human monocytes. Put plainly: NAF production by stimulated human mononuclear cells/monocytes (read out as elastase release). It is filed as cell-based. Conditions: mononuclear cell fraction; PHA 5 μg/ml or ConA 10 μg/ml. As for the experimental part: […] At various time intervals the media are collected, cleared by centrifugation (20000 rpm for 20 min. at 4° C.) and NAF activity is measured. Cells from a single donor; means of duplicate cultures.
Human monocytes are isolated from buffy coats of donor blood (Swiss Red Cross Laboratory, Bern, Switzerland) by centrifugation through a Ficoll-Paque gradient. This method separates neutrophils from the so-called mononuclear cells, a mixture of monocytes (about 20%) and lymphocytes (about 80%). Three monocyte preparations are used: (i) the total mononuclear cell fraction, (ii) monocytes enriched from the mononuclear cell fraction by adherence, and (iii) 90% pure monocytes separated from the lymphocytes by centrifugal elutriation (G. Garotta et al., Biochem. Biophys. Res. Comm. 140 [1986] 948-954 and K. J. Clemetson et al., J. Exp. Med. 161 [1985] 972-983). […] At different times, aliquots of the culture media are sampled and NAF activity is determined as the capacity to induce the release of elastase from human neutrophils pretreated with cytochalasin B (B. Dewald et al., Biochem. Pharmacol. 36 [1987] 2505-2510).
Mononuclear cell cultures (5×10^6 cells/ml) consisting of monocytes and lymphocytes in a ratio of approximately 1:5 produce NAF when stimulated with LPS (100 ng/ml). NAF accumulates in the medium over 24 h and the production levels off between 24 h and 48 h. […]

Data set [6] can be described thus: exposure to fresh human serum, then activity (superoxide production). Conditions: 15 minutes with fresh human serum. It is filed as in vitro ADME. As for the experimental part: C5A and NAF are incubated for 15 minutes with fresh human serum or with PBS and the activity of the preparations is determined (superoxide production).
Since C5a and NAF have similar effects on neutrophils, further experiments must be performed to discriminate entirely between the two. Samples of NAF and C5a are exposed to fresh human serum.

The subject of a further data set is neutrophils. The experiment in a line: sequential/repeated stimulation of neutrophils (desensitization, superoxide formation). The data set is classed as cell-based, human. As to conditions: superoxide formation. As for the experimental part:
a) Neutrophils (3×10^6 /ml) are preincubated at 37° C. for 5 min. and then stimulated with different agonists as indicated (arrows).
b) Sequential or repeated stimulation with NAF and C5a. Conditions as in a).
Arrows show addition of agonists as indicated. The concentration of C5a is 0.5 nM in a) and 0.2 nM in b), that of fMLP is 20 nM in both experiments. The agonists are added in 50 μl of PBS-BSA.
On the other hand, when agonists acting on different receptors are used in sequence.(e.g. fMLP followed by C5a) these stimulations yield a normal response. Experiments of this type are therefore used to find out whether NAF acts by its own receptor or via a receptor also used by other agonists.

[7] abbreviates: with CB (cytochalasin B 5 μg/ml).

“1-0-hexadecyl-2-0-acetyl-sn-glycero-3-phosphocholine [PAF, reference compound]”: the “time between stimulus addition and onset of H2O2 production, as previously reported” value with human neutrophils [1] was “about 2 sec”. Also, in the data set on human neutrophils [2], the “effect of pretreatment of the cells with PAF on the superoxide response to NAF” value is “markedly enhanced”.
For the molecule `Cc1c2oc3c(C)ccc(C(=O)N[C@@H]4C(=O)N[C@H](C(C)C)C(=O)N5CCC[C@H]5C(=O)N(C)CC(=O)N(C)[C@@H](C(C)C)C(=O)O[C@@H]4C)c3nc-2c(C(=O)N[C@@H]2C(=O)N[C@H](C(C)C)C(=O)N3CCC[C@H]3C(=O)N(C)CC(=O)N(C)[C@@H](C(C)C)C(=O)O[C@@H]2C)c(N)c1=O` [actinomycin D] (I: T[dV]P[Sar][NMeV] / II: T[dV]P[Sar][NMeV]; ester I:1-I:C, II:1-II:C; linker I:N-II:N via Actinocin(9to1)), in [3] (actinomycin D 10^−7 moles/site), the “effect on neutrophil accumulation induced by NAF” value is recorded as “no effect” and the “effect on neutrophil accumulation induced by fMLP” value is listed as “no effect”. Moreover, the “inhibition of neutrophil accumulation induced by endotoxin” value in data set [3] (actinomycin D 10^−7 moles/site, endotoxin 10^−13 moles) is 90%.
As to `CSCC[C@H](NC=O)C(=O)N[C@@H](CC(C)C)C(=O)N[C@@H](Cc1ccccc1)C(=O)O` [fMLP, N-formyl-L-methionyl-L-leucyl-L-phenylalanine, reference compound], the N-acetyl-β-glucosaminidase in the data set with Rabbit neutrophils came out at 181 pmol/min. For the same molecule, in the data set on human neutrophils [1], the “time between stimulus addition and onset of H2O2 production, as previously reported” value is “about 2 sec”. Moreover, the “time between stimulus addition and onset of H2O2 production” value with human neutrophils [4] is given as “about 2 sec”. Moreover, in the data set on human neutrophils [5] (setting [7]), the “Percent release of Vit. B12-binding protein” value is given as 35.6 ± 5.5%, the “Percent release of lactate dehydrogenase” value worked out at 5.3 ± 1.6% and the “Percent release of β-glucuronidase” value stood at 12.1 ± 4.4%. In the data set on human neutrophils [5] (without CB), the “Percent release of Vit. B12-binding protein” value came out at 14.0 ± 0.9%, the “Percent release of lactate dehydrogenase” value turned out to be 5.7 ± 1.1% and the “Percent release of β-glucuronidase” value is 2.3 ± 0.8%.
`CCCCC/C=C\C[C@@H](O)/C=C/C=C/C=C\[C@@H](O)CCCC(=O)O` [leukotriene B4]: the “time between stimulus addition and onset of H2O2 production, as previously reported” value in the data set with human neutrophils [1] is given as “about 2 sec”.
Consider Polymyxin B, for which, in data set [3] (polymyxin B 40 μg/site), the “effect on neutrophil accumulation induced by NAF” value is recorded as “without effect” and the “effect on neutrophil accumulation induced by fMLP” value is listed as “without effect”. Further, the “inhibition of the response to endotoxin” value in data set [3] (polymyxin B 40 μg/site, endotoxin 10^−13 moles) turned out to be 84%.
As to concanavalin A [ConA], in the data set on human monocytes, the “time at which maximum of NAF production is reached” value is recorded as “about 24 h”.
phytohemagglutinin [PHA]: the “time at which maximum of NAF production is reached” value with human monocytes is given as “about 24 h”.

B1: C5a: anaphylatoxin (protein, UniProt P01031 678-751, looked up)
C5a anaphylatoxin: TLQKKIEEIAAKYKHSVVKKCCYDGACVNNDETCEQRAARISLGPRCIKAFTECCVVASQLRANISHKDMQLGR
modifications: C5a anaphylatoxin
On to B1, for which the “effect of serum treatment on activity” value in [6] is on record as “completely abolishes”. In the data set on human neutrophils [1], the “time between stimulus addition and onset of H2O2 production, as previously reported” value was “about 2 sec”. Moreover, in the data set on human neutrophils [4], the “time between stimulus addition and onset of H2O2 production” value was “about 2 sec”. Moreover, the “desensitization to a second stimulation with the same agonist” value with neutrophils is listed as “complete desensitization”.
